Numbers after ± are expanded uncertainties.
Legend:
[1] = 101.33 kPa, Liquid; for thermal conductivity: Parallel plate method; for mass density: Vibrating tube method
[2] = refractive index (Na D-line) (dimensionless); details: 101.33 kPa, Liquid, Standard Abbe refractometry

Row | SMILES | thermal conductivity ([1]; 283.15 K) [W/m/K] | mass density ([1]; 283.15 K) [kg/m3] | mass density ([1]; 288.15 K) [kg/m3] | thermal conductivity ([1]; 293.15 K) [W/m/K] | mass density ([1]; 293.15 K) [kg/m3] | mass density ([1]; 298.15 K) [kg/m3] | thermal conductivity ([1]; 303.15 K) [W/m/K] | mass density ([1]; 303.15 K) [kg/m3] | mass density ([1]; 308.15 K) [kg/m3] | thermal conductivity ([1]; 313.15 K) [W/m/K] | mass density ([1]; 313.15 K) [kg/m3] | mass density ([1]; 318.15 K) [kg/m3] | thermal conductivity ([1]; 323.15 K) [W/m/K] | mass density ([1]; 323.15 K) [kg/m3] | mass density ([1]; 328.15 K) [kg/m3] | thermal conductivity ([1]; 333.15 K) [W/m/K] | mass density ([1]; 333.15 K) [kg/m3] | mass density ([1]; 338.15 K) [kg/m3] | thermal conductivity ([1]; 343.15 K) [W/m/K] | thermal conductivity ([1]; 353.15 K) [W/m/K] | further results
1 | CCCCn1cc[n+](C)c1.N#C[B-](C#N)(C#N)C#N [1-butyl-3-methyl-1H-imidazolium tetracyanoborate] | 0.178 ± 0.006 | 1021.17 ± 0.3 | 1017.37 ± 0.3 | 0.1791 ± 0.006 | 1013.59 ± 0.3 | 1009.83 ± 0.3 | 0.1756 ± 0.0059 | 1006.09 ± 0.29 | 1002.37 ± 0.29 | 0.1737 ± 0.0058 | 998.67 ± 0.29 | 995 ± 0.29 | 0.1732 ± 0.0058 | 991.34 ± 0.29 | 987.71 ± 0.29 | 0.1693 ± 0.0057 | 984.09 ± 0.29 | 980.5 ± 0.29 | 0.1664 ± 0.0056 | 0.1632 ± 0.0055 | mass density ([1]; 343.15 K): 976.92 ± 0.29 kg/m3; mass density ([1]; 348.15 K): 973.37 ± 0.29 kg/m3; mass density ([1]; 353.15 K): 969.82 ± 0.29 kg/m3; mass density ([1]; 358.15 K): 966.3 ± 0.29 kg/m3; mass density ([1]; 363.15 K): 962.8 ± 0.28 kg/m3; refractive index ([2]; 283.15 K): 1.4561 ± 0.0006; refractive index ([2]; 293.15 K): 1.4533 ± 0.0006; refractive index ([2]; 303.15 K): 1.45 ± 0.0006; refractive index ([2]; 313.15 K): 1.4473 ± 0.0006
2 | CCCCCCCCCCn1cc[n+](C)c1.N#C[B-](C#N)(C#N)C#N [1-decyl-3-methyl-1H-imidazolium tetracyanoborate] | 0.1665 ± 0.0056 | 972.81 ± 0.29 | 969.36 ± 0.29 | 0.1673 ± 0.0056 | 965.94 ± 0.28 | 962.51 ± 0.28 | 0.1667 ± 0.0056 | 959.09 ± 0.28 | 955.68 ± 0.28 | 0.1646 ± 0.0055 | 952.29 ± 0.28 | 948.91 ± 0.28 | 0.164 ± 0.0055 | 945.54 ± 0.28 | 942.19 ± 0.28 | 0.1613 ± 0.0054 | 938.85 ± 0.28 | 935.53 ± 0.28 | 0.16 ± 0.0054 | 0.1586 ± 0.0053 | mass density ([1]; 343.15 K): 932.22 ± 0.28 kg/m3; mass density ([1]; 348.15 K): 928.94 ± 0.28 kg/m3; mass density ([1]; 353.15 K): 925.65 ± 0.28 kg/m3; mass density ([1]; 358.15 K): 922.39 ± 0.28 kg/m3; mass density ([1]; 363.15 K): 919.14 ± 0.28 kg/m3; refractive index ([2]; 283.15 K): 1.4612 ± 0.0006; refractive index ([2]; 293.15 K): 1.4584 ± 0.0006; refractive index ([2]; 303.15 K): 1.4552 ± 0.0006; refractive index ([2]; 313.15 K): 1.4522 ± 0.0006
3 | CCn1cc[n+](C)c1.N#C[C-](C#N)C#N [1-ethyl-3-methyl-1H-imidazolium tricyanomethanide] | 0.1966 ± 0.0066 | 1091.96 ± 1 | 1088.37 ± 1 | 0.1958 ± 0.0066 | 1084.8 ± 1 | 1081.25 ± 1 | 0.1955 ± 0.0066 | 1077.71 ± 1 | 1074.19 ± 0.99 | 0.1928 ± 0.0065 | 1070.69 ± 0.98 | 1067.21 ± 0.98 | 0.1917 ± 0.0064 | 1063.74 ± 0.97 | 1060.29 ± 0.96 | 0.1896 ± 0.0064 | 1056.86 ± 0.95 | 1053.44 ± 0.95 | 0.1883 ± 0.0063 | 0.1874 ± 0.0063 | mass density ([1]; 343.15 K): 1050.04 ± 0.94 kg/m3; mass density ([1]; 348.15 K): 1046.66 ± 0.93 kg/m3; mass density ([1]; 353.15 K): 1043.28 ± 0.93 kg/m3; mass density ([1]; 358.15 K): 1039.93 ± 0.92 kg/m3; mass density ([1]; 363.15 K): 1036.58 ± 0.91 kg/m3; refractive index ([2]; 283.15 K): 1.516 ± 0.0007; refractive index ([2]; 293.15 K): 1.5131 ± 0.0007; refractive index ([2]; 303.15 K): 1.5101 ± 0.0007; refractive index ([2]; 313.15 K): 1.5071 ± 0.0007
4 | CCCCCCn1cc[n+](C)c1.N#C[B-](C#N)(C#N)C#N [1-hexyl-3-methylimidazolium tetracyanoborate] | 0.1762 ± 0.0059 | – | – | 0.1752 ± 0.0059 | – | – | 0.1741 ± 0.0058 | – | – | 0.1714 ± 0.0057 | – | – | 0.1722 ± 0.0058 | – | – | 0.1697 ± 0.0057 | – | – | 0.1677 ± 0.0056 | 0.1656 ± 0.0056 | –
5 | CCCCCCCCn1cc[n+](C)c1.N#C[B-](C#N)(C#N)C#N [1-methyl-3-octylimidazolium tetracyanoborate] | 0.1703 ± 0.0057 | 985.65 ± 0.29 | 982.14 ± 0.29 | 0.1694 ± 0.0057 | 978.62 ± 0.29 | 975.1 ± 0.29 | 0.1682 ± 0.0056 | 971.6 ± 0.29 | 968.12 ± 0.29 | 0.1644 ± 0.0055 | 964.65 ± 0.28 | 961.2 ± 0.28 | 0.1586 ± 0.0053 | 957.76 ± 0.28 | 954.34 ± 0.28 | 0.1573 ± 0.0053 | 950.94 ± 0.28 | 947.55 ± 0.28 | 0.1543 ± 0.0052 | 0.1513 ± 0.0051 | mass density ([1]; 343.15 K): 944.17 ± 0.28 kg/m3; mass density ([1]; 348.15 K): 940.82 ± 0.28 kg/m3; mass density ([1]; 353.15 K): 937.45 ± 0.28 kg/m3; mass density ([1]; 358.15 K): 934.15 ± 0.28 kg/m3; mass density ([1]; 363.15 K): 930.84 ± 0.28 kg/m3; refractive index ([2]; 283.15 K): 1.4603 ± 0.0006; refractive index ([2]; 293.15 K): 1.457 ± 0.0006; refractive index ([2]; 303.15 K): 1.4541 ± 0.0006; refractive index ([2]; 313.15 K): 1.4509 ± 0.0006
6 | CCCCCCCCn1cc[n+](C)c1.N#CC(=C=[N-])C#N [1-methyl-3-octylimidazolium tricyanomethanide] | 0.1717 ± 0.0058 | 1010.18 ± 0.86 | 1006.97 ± 0.85 | 0.1689 ± 0.0057 | 1003.75 ± 0.85 | 1000.54 ± 0.84 | 0.1675 ± 0.0057 | 997.34 ± 0.83 | 994.15 ± 0.83 | 0.1685 ± 0.0057 | 990.97 ± 0.83 | 987.8 ± 0.82 | 0.1678 ± 0.0057 | 984.65 ± 0.82 | 981.5 ± 0.82 | 0.1655 ± 0.0056 | 978.37 ± 0.81 | 975.25 ± 0.81 | 0.1642 ± 0.0056 | 0.1639 ± 0.0056 | mass density ([1]; 343.15 K): 972.14 ± 0.8 kg/m3; mass density ([1]; 348.15 K): 969.05 ± 0.8 kg/m3; mass density ([1]; 353.15 K): 965.97 ± 0.8 kg/m3; mass density ([1]; 358.15 K): 962.89 ± 0.79 kg/m3; mass density ([1]; 363.15 K): 959.82 ± 0.79 kg/m3; refractive index ([2]; 283.15 K): 1.5048 ± 0.0007; refractive index ([2]; 293.15 K): 1.5021 ± 0.0007; refractive index ([2]; 303.15 K): 1.4993 ± 0.0007; refractive index ([2]; 313.15 K): 1.4964 ± 0.0007
7 | CCCCCCCCCC[n+]1ccn(C)c1.N#C[C-](C#N)C#N [3-decyl-1-methylimidazolium tricyanomethanide] | 0.168 ± 0.0057 | 992.5 ± 0.83 | 989.38 ± 0.82 | 0.1694 ± 0.0057 | 986.25 ± 0.82 | 983.11 ± 0.82 | 0.1674 ± 0.0057 | 979.98 ± 0.81 | 976.85 ± 0.81 | 0.1676 ± 0.0057 | 973.73 ± 0.81 | 970.63 ± 0.8 | 0.1673 ± 0.0057 | 967.53 ± 0.8 | 964.44 ± 0.8 | 0.1646 ± 0.0056 | 961.37 ± 0.79 | 958.31 ± 0.79 | 0.162 ± 0.0055 | 0.1593 ± 0.0054 | mass density ([1]; 343.15 K): 955.24 ± 0.79 kg/m3; mass density ([1]; 348.15 K): 952.2 ± 0.78 kg/m3; mass density ([1]; 353.15 K): 949.17 ± 0.78 kg/m3; mass density ([1]; 358.15 K): 946.15 ± 0.77 kg/m3; mass density ([1]; 363.15 K): 943.13 ± 0.77 kg/m3; refractive index ([2]; 283.15 K): 1.5008 ± 0.0007; refractive index ([2]; 293.15 K): 1.4981 ± 0.0007; refractive index ([2]; 303.15 K): 1.495 ± 0.0007; refractive index ([2]; 313.15 K): 1.4918 ± 0.0007
8 | CCCCCC[n+]1ccn(C)c1.N#C[C-](C#N)C#N [3-hexyl-1-methylimidazolium tricyanomethanide] | 0.1817 ± 0.0061 | 1030.55 ± 0.9 | 1027.22 ± 0.89 | 0.1815 ± 0.0061 | 1023.92 ± 0.89 | 1020.62 ± 0.88 | 0.1831 ± 0.0062 | 1017.35 ± 0.87 | 1014.08 ± 0.87 | 0.1817 ± 0.0061 | 1010.83 ± 0.86 | 1007.58 ± 0.85 | 0.181 ± 0.0061 | 1004.35 ± 0.85 | 1001.14 ± 0.84 | 0.1792 ± 0.006 | 997.93 ± 0.84 | 994.74 ± 0.83 | 0.1774 ± 0.006 | 0.1762 ± 0.0059 | mass density ([1]; 343.15 K): 991.57 ± 0.83 kg/m3; mass density ([1]; 348.15 K): 988.4 ± 0.82 kg/m3; mass density ([1]; 353.15 K): 985.24 ± 0.82 kg/m3; mass density ([1]; 358.15 K): 982.11 ± 0.82 kg/m3; mass density ([1]; 363.15 K): 978.98 ± 0.81 kg/m3; refractive index ([2]; 283.15 K): 1.5084 ± 0.0007; refractive index ([2]; 293.15 K): 1.5055 ± 0.0007; refractive index ([2]; 303.15 K): 1.5026 ± 0.0007; refractive index ([2]; 313.15 K): 1.4994 ± 0.0007
